Test results reported in publication PMC3164908 (European journal of medicinal chemistry, 2011).
“Also recorded” adds a separate entry of the source. Read-outs that look alike come from different tables or passages of the source.

Key:
[1] = test system: multidrug-resistant strains of HIV; settings: cited from earlier work
Solubility in water = format: physicochemical
MT-2 cell line = experiment: Cell viability assay; format: cell-based, human; settings: MTT assay, concentrations up to 100 μM
[2] = test system: TZM-BL (derived from Hela Cells); experiment: Cytotoxicity screening, Promega CellTiter-Glo Luminescent Cell Viability Assay; format: cell-based; settings: Homo sapiens, read-out: IC50 (μM), concentration that inhibits cell growth by 50%

Cc1cn([C@H]2C[C@H](O)[C@](CO)(N=[N+]=[N-])O2)c(=O)[nH]c1=O [4′-C-azidothymidine]
EC50 [1]: 340 nM

[N-]=[N+]=N[C@]1(CO)O[C@@H](n2ccc(N)nc2=O)[C@@H](F)[C@@H]1O [Compound 10, 1-(4′-azido-2′-deoxy-2′-fluoro-β -D-arabinofuranosyl)cytosine]
solubility (Solubility in water; water): 3.1 g in 100 g water
cytotoxicity / effect on cell growth (MT-2 cell line): did not show significant cytotoxicity; also recorded: without significant cytotoxicity; also recorded: no significant effect on cell growth or any cytotoxic effect

Cl.[N-]=[N+]=N[C@]1(CO)O[C@@H](n2ccc(N)nc2=O)[C@@H](F)[C@@H]1O [Compound 11, 1-(4-azido-2-deoxy-2-fluoro)-β-D-arabinofuranosyl)cytosine hydrochloride salt]
IC50 [2]: > 140 µM

Cl.[N-]=[N+]=N[C@]1(CO)O[C@@H](n2ccc(N)nc2=O)[C@@H](F)[C@@H]1O [Compound 11]
solubility (Solubility in water): 14.3 g in 100 g water
cytotoxicity / effect on cell growth (MT-2 cell line): did not show significant cytotoxicity; also recorded: without significant cytotoxicity; also recorded: no significant effect on cell growth or any cytotoxic effect
